Assay results reported in patent publication US20240238228A1, “COMPOSITIONS AND METHODS FOR TREATING ALLERGIES AND INFLAMMATORY CONDITIONS” (UNIVERSITY OF PITTSBURGH-OF THE COMMONWEALTH SYSTEM OF …, priority 2021, published 2024).
No end group written: not given here.

Experiments:
[1] = target: calpain released into cell-free supernatants by IgE-activated murine BMMCs (murine) (UniProt O35350); experiment: cell-based or functional assay
MCs = conditions: previous studies; cited from earlier work
IL-10 = IL-10 degradation assays on BMMC supernatants; assay type: cell-based, murine; conditions: supernatants collected 10 min after activation, pulsed with Ac-calpastatin 30 min
Experimental: To detect early IL-10 release, 4×10^6 cells were incubated in serum free RPMI for a minimum of three hours prior to IgE loading and activation with DNP-HSA (100 ng/mL). Supernatants were collected and IL-10 was detected in accord with manufacturer's recommendations using 1.0% BSA to block and a top standard of 250 pg/mL. The lower limit of detection was 7.8 pg/mL. To evaluate the role of relationship between calpain and IL-10, cell-free supernatants were collected 10 min after activation and incubated with Ac-calpastatin (Ac-Cal; 20 μg/mL, Cayman) or vehicle control. […] To directly test IL-10 proteolysis, MCs were activated for 45 min, cell free supernatants were collected and pulsed with recombinant IL-10 (Biolegend, 250 pg/mL).

calpain = experiment: Calpain inhibition in cell-free BMMC supernatants pulsed with inhibitor; assay type: biochemical, murine; conditions: Ac-calpastatin 20 μg/mL, 30 min; mean±SEM from n=3
Experimental: (§1) Calpain activity was detected from cell-free supernatants using the Calpain-Glo Protease Assay (Promega). Supernatants were incubated with substrate for 10 min prior to luminescent detection. In some experiments, glyburide or vehicle (0.1% DMSO) were added to cells 10 min prior to Ag. ELISA kits from eBioscience (IL-13), BioLegend, (TNF and IL-10) or RayBiotech (NKA) and used in accord with the manufacturer's recommendations.
To detect early IL-10 release, 4×10^6 cells were incubated in serum free RPMI for a minimum of three hours prior to IgE loading and activation with DNP-HSA (100 ng/mL). Supernatants were collected and IL-10 was detected in accord with manufacturer's recommendations using 1.0% BSA to block and a top standard of 250 pg/mL. The lower limit of detection was 7.8 pg/mL. To evaluate the role of relationship between calpain and IL-10, cell-free supernatants were collected 10 min after activation and incubated with Ac-calpastatin (Ac-Cal; 20 μg/mL, Cayman) or vehicle control. Ac-Cal containing supernatants were further incubated for 30 min prior to IL-10 quantification by ELISA. To directly test IL-10 proteolysis, MCs were activated for 45 min, cell free supernatants were collected and pulsed with recombinant IL-10 (Biolegend, 250 pg/mL).

peanut allergy = experiment: Peanut allergy desensitization by microneedle arrays; assay type: in vivo, mouse; conditions: mouse, in vivo
IL-33 = conditions: mouse, in vivo
NKA = NKA in skin homogenates by ELISA; assay type: in vivo, mouse; conditions: IL-10 1.0 ng/ear; without PCA induction
Experimental: as §1
Mouse ears were measured with a micrometer then sensitized with IgE in filter-sterilized PBS (Sigma, clone SPE-7, 20 ng/50 μl/ear) or vehicle control. Twenty-four hours later mice were treated with NKA (10 μg/ear, intradermal) or vehicle (PBS) 3 h prior to Ag (DNP-HSA 100 μg, in 200 μl, intravenous in saline) administration. Data are presented as change in ear thickness between baseline and the indicated time. Where indicated, mice were treated with recombinant murine IL-10 (Peprotech, 1.0 ng/ear) at the time of IgE injection or treated with glyburide (2.5 mg/kg, i.p), 3 h prior to Ag administration.
Cytokine expression in the skin was investigated 24 h after PCA induction. […] Protein concentrations were quantified using the BCA Protein Assay (Pierce). […] Densitometry values subtracting the median background from individual spot areas were calculated with ImageStudioLite v5.2.5. […]

recombinant murine IL-10 = experiment: Degradation of recombinant IL-10 by purified calpain (Western blot); assay type: biochemical; conditions: rIL-10 incubated with increasing concentrations of purified calpain, 60 min
Experimental: The IL-10 degrading capacity of calpain, recombinant murine IL-10 (Peprotech) was incubated with human calpain I (Athens Research and Technology) for 60 min at 37° C., then denatured with Laemelli Buffer (BioRad) and resolved on 10% Tris-Glycine SDS-PAGE gels (BioRad). Proteins were transferred to […] PVDF membranes (BioRad), blocked for 1 h with Odyssey Blocking Buffer (LI-COR) and probed overnight with goat anti-mouse IL-10 antibody (RnD Systems). Ant-IL10 was detected with donkey anti-goat 800CW (LI-COR) and visualized on a LI-COR Imaging System. Densitometry was calculated using ImageStudioLite v5.2.5 (Licor). Values are presented as (rIL-10+calpain)/rIL-10 alone)*100.

Ac-calpastatin (Cayman) (from UniProt P20810 184-210) (peptide)
calpain activity [1]: 20.1%

NKA(4-10): a naturally truncated form of NKA [reference compound]
effect on MCs (β-hexosaminidase or histamine release as readouts) (MCs): no effect

Ac-calpastatin: a calpain inhibitor (Cayman) (Ac-DPMSSTYIEELGKREVTIPPKYRELLA; not fully specified (C-terminus)) [reference compound]
IL-10 levels in supernatants from IgE-activated BMMCs (IL-10): partially restored
inhibition of calpain activity (calpain): 20.1±1.72%

botulinum toxin A
allergy to peanut allergen after CPE challenge (peanut allergy): desensitizes
IL-33 expression in skin (IL-33): reduces IL-33 expression

B1: recombinant IL-10: recombinant murine IL-10 (Peprotech) (protein)
chain: SRGQYSREDNNCTHFPVGQSHMLLELRTAFSQVKTFFQTKDQLDNILLTDSLMQDFKGYLGCQALSEMIQFYLVEVMPQAEKHGPEIKEHLNSLGEKLKTLRMRLRRCHRFLPCENKSKAVEQVKSDFNKLQDQGVYKAMNEFDIFINCIEAYMMIKMKS
steady state NKA in skin homogenates (NKA): significantly increased

B2: calpain: purified human calpain I (Athens Research and Technology), IL-10 degrading cysteine protease (protein)
chain: SEEIITPVYCTGVSAQVQKQRARELGLGRHENAIKYLGQDYEQLRVRCLQSGTLFRDEAFPPVPQSLGYKDLGPNSSKTYGIKWKRPTELLSNPQFIVDGATRTDICQGALGDCWLLAAIASLTLNDTLLHRVVPHGQSFQNGYAGIFHFQLWQFGEWVDVVVDDLLPIKDGKLVFVHSAEGNEFWSALLEKAYAKVNGSYEALSGGSTSEGFEDFTGGVTEWYELRKAPSDLYQIILKALERGSLLGCSIDISSVLDMEAITFKKLVKGHAYSVTGAKQVNYRGQVVSLIRMRNPWGEVEWTGAWSDSSSEWNNVDPYERDQLRVKMEDGEFWMSFRDFMREFTRLEICNLTPDALKSRTIRKWNTTLYEGTWRRGSTAGGCRNYPATFWVNPQFKIRLDETDDPDDYGDRESGCSFVLALMQKHRRRERRFGRDMETIGFAVYEVPPELVGQPAVHLKRDFFLANASRARSEQFINLREVSTRFRLPPGEYVVVPSTFEPNKEGDFVLRFFSEKSAGTVELDDQIQANLPDEQVLSEEEIDENFKALFRQLAGEDMEISVKELRTILNRIISKHKDLRTKGFSLESCRSMVNLMDRDGNGKLGLVEFNILWNRIRNYLSIFRKFDLDKSGSMSAYEMRMAIESAGFKLNKKLYELIITRYSEPDLAVDFDNFVCCLVRLETMFRFFKTLDTDLDGVVTFDLFKWLQLTMFA
amount of IL-10 detected by Western blot (recombinant murine IL-10): inversely proportional to calpain concentration
